Results: the supplement of paper PMC10307832

compound: CC(C)CCN1c2nc(Nc3cc(F)c(O)c(F)c3)ncc2N(C)C(=O)C1C [BI-D1870] + Nc1nc2[nH]cc(CCc3ccc(C(=O)N[C@@H](CCC(=O)O)C(=O)O)cc3)c2c(=O)[nH]1 [Pemetrexed] (partner 0.2 µM); test: relative viability (nuclei count vs DMSO), 5 days (fraction); higher = more cells survive; conditions: first compound 0.04 µM
Summary of the method: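 Relative viability was taken as the ratio of nuclei in treated wells to nuclei in vehicle wells. Lung cancer cell lines in 1536-well plates received compounds by pin tool one day after seeding, either one drug alone or a fixed anchor-drug dose plus five library-drug doses (not always all listed) in √10 steps. Nuclei were counted on 4× images after 5 days of treatment, and values are medians of duplicate plates.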

Row | Cell Line | relative viability
1 | NCI-H2342 | 0.759
2 | NCI-H1650 | 0.405
3 | NCI-H1993 | 0.646
4 | SW 1573 | 0.855
5 | NCI-H838 | 0.267
6 | LCLC-103H | 0.453
7 | NCI-H520 | 0.757
8 | NCI-H2126 | 0.694
9 | EMC-BAC-2 | 0.457
10 | NCI-H2085 | 0.924
11 | HCC-366 | 0.148
12 | NCI-H1666 | 0.857
13 | NCI-H596 | 0.458
14 | LK-2 | 0.253
15 | NCI-H2087 | 0.697
16 | NCI-H1648 | 0.619
17 | SK-MES-1 | 0.992

Row | Cell Line | relative viability
18 | H3255 | 0.57
19 | COR-L23 | 0.181
20 | COR-L 105 | 1.31
21 | LOU-NH91 | 0.355
22 | ChaGo-K-1 | 0.255
23 | NCI-H2170 | 0.299
24 | NCI-H2405 | 1.2
25 | HCC-44 | 0.653
26 | NCI-H522 | 1.24
27 | SW 900 | 0.44
28 | NCI-H1395 | 0.882
29 | NCI-H1792 | 1.12
30 | NCI-H1793 | 1.14
31 | NCI-H1563 | 0.869
32 | NCI-H1944 | 0.899
33 | NCI-H358 | 0.184

same assay, conditions: first compound 0.1265 µM

Row | Cell Line | relative viability
34 | NCI-H2342 | 0.768
35 | NCI-H1650 | 0.358
36 | NCI-H1993 | 0.605
37 | SW 1573 | 0.775
38 | NCI-H838 | 0.249
39 | LCLC-103H | 0.457
40 | NCI-H520 | 0.673
41 | NCI-H2126 | 0.726
42 | EMC-BAC-2 | 0.456
43 | NCI-H2085 | 0.802
44 | HCC-366 | 0.174
45 | NCI-H1666 | 0.835
46 | NCI-H596 | 0.47
47 | LK-2 | 0.352
48 | NCI-H2087 | 0.671
49 | NCI-H1648 | 0.588
50 | SK-MES-1 | 0.874

Row | Cell Line | relative viability
51 | H3255 | 0.563
52 | COR-L23 | 0.209
53 | COR-L 105 | 0.883
54 | LOU-NH91 | 0.372
55 | ChaGo-K-1 | 0.245
56 | NCI-H2170 | 0.269
57 | NCI-H2405 | 1.01
58 | HCC-44 | 0.631
59 | NCI-H522 | 1.01
60 | SW 900 | 0.463
61 | NCI-H1395 | 0.735
62 | NCI-H1792 | 0.795
63 | NCI-H1793 | 0.737
64 | NCI-H1563 | 0.793
65 | NCI-H1944 | 0.603
66 | NCI-H358 | 0.168

same assay, conditions: first compound 0.4 µM

Row | Cell Line | relative viability
67 | NCI-H2342 | 0.764
68 | NCI-H1650 | 0.338
69 | NCI-H1993 | 0.582
70 | SW 1573 | 0.826
71 | NCI-H838 | 0.31
72 | LCLC-103H | 0.48
73 | NCI-H520 | 0.636
74 | NCI-H2126 | 0.649
75 | EMC-BAC-2 | 0.421
76 | NCI-H2085 | 0.887
77 | HCC-366 | 0.215
78 | NCI-H1666 | 0.895
79 | NCI-H596 | 0.45
80 | LK-2 | 0.31
81 | NCI-H2087 | 0.75
82 | SK-MES-1 | 0.895

Row | Cell Line | relative viability
83 | H3255 | 0.584
84 | COR-L23 | 0.195
85 | COR-L 105 | 1.14
86 | LOU-NH91 | 0.329
87 | ChaGo-K-1 | 0.253
88 | NCI-H2170 | 0.261
89 | NCI-H2405 | 1
90 | HCC-44 | 0.632
91 | NCI-H522 | 0.978
92 | SW 900 | 0.471
93 | NCI-H1395 | 0.848
94 | NCI-H1792 | 0.706
95 | NCI-H1793 | 0.869
96 | NCI-H1563 | 0.776
97 | NCI-H1944 | 0.599
98 | NCI-H358 | 0.153

same assay, conditions: first compound 1.265 µM

Row | Cell Line | relative viability
99 | NCI-H2342 | 0.81
100 | NCI-H1650 | 0.427
101 | NCI-H1993 | 0.594
102 | SW 1573 | 0.845
103 | NCI-H838 | 0.248
104 | LCLC-103H | 0.434
105 | NCI-H520 | 0.416
106 | NCI-H2126 | 0.744
107 | EMC-BAC-2 | 0.541
108 | NCI-H2085 | 0.881
109 | HCC-366 | 0.176
110 | NCI-H1666 | 0.812
111 | NCI-H596 | 0.576
112 | LK-2 | 0.306
113 | NCI-H2087 | 0.71
114 | NCI-H1648 | 0.802
115 | SK-MES-1 | 0.716

Row | Cell Line | relative viability
116 | H3255 | 0.584
117 | COR-L23 | 0.205
118 | COR-L 105 | 1.32
119 | LOU-NH91 | 0.386
120 | ChaGo-K-1 | 0.242
121 | NCI-H2170 | 0.249
122 | NCI-H2405 | 1.04
123 | HCC-44 | 0.75
124 | NCI-H522 | 1
125 | SW 900 | 0.516
126 | NCI-H1395 | 0.95
127 | NCI-H1792 | 1.11
128 | NCI-H1793 | 1.03
129 | NCI-H1563 | 0.776
130 | NCI-H1944 | 0.631
131 | NCI-H358 | 0.164

same assay, conditions: first compound 4 µM

Row | Cell Line | relative viability
132 | NCI-H2342 | 0.816
133 | NCI-H1650 | 0.373
134 | NCI-H1993 | 0.475
135 | SW 1573 | 0.35
136 | NCI-H838 | 0.262
137 | LCLC-103H | 0.439
138 | NCI-H520 | 0.267
139 | NCI-H2126 | 0.552
140 | EMC-BAC-2 | 0.46
141 | NCI-H2085 | 0.603
142 | HCC-366 | 0.118
143 | NCI-H1666 | 0.779
144 | NCI-H596 | 0.454
145 | LK-2 | 0.282
146 | NCI-H2087 | 0.703
147 | NCI-H1648 | 0.661
148 | SK-MES-1 | 0.622
149 | H3255 | 0.526
150 | COR-L23 | 0.201
151 | COR-L 105 | 1.05
152 | LOU-NH91 | 0.344
153 | ChaGo-K-1 | 0.235
154 | NCI-H2170 | 0.403
155 | NCI-H2405 | 0.796
156 | HCC-44 | 0.689
157 | NCI-H522 | 0.984
158 | SW 900 | 0.434
159 | NCI-H1395 | 0.86
160 | NCI-H1792 | 0.634
